Measurements from US20240228535A1 (priority 2022, published 2024).

The compounds below were run against SARS2 coronavirus 3CL protease (Severe acute respiratory syndrome coronavirus 2, UniProt P0DTD1) (assay: biochemical). Conditions: 5 nM enzyme, 30 min pre-incubation with compound, 15 μM peptide substrate, 4 h at room temperature; read-out: FRET Potency (nM); IC50 values in the SARS2 3CLPro FRET assay.

Row | SMILES | IC50 [nM]
1 | C[C@@H]1C[C@@H](C[C@H](NC(=O)c2cc(Cl)ccc2NC(=O)c2ccc(C(F)(F)F)nc2)C(=O)C(=O)NC2CC2)C(=O)N1 [Example 225, N-[4-chloro-2-[[(1S)-3-(cyclopropylamino)-1-[[(3S,5R)-5-methyl-2-oxo-pyrrolidin-3-yl]methyl]-2,3-dioxo-propyl]carbamoyl]phenyl]-6-(trifluoromethyl)pyridine-3-carboxamide] | 6.8
2 | C[C@@H]1C[C@@H](C[C@H](NC(=O)c2cc(Cl)ccc2NC(=O)c2cnc(C(F)(F)F)cn2)C(=O)C(=O)NC2CC2)C(=O)N1 [Example 226, N-[4-chloro-2-[[(1S)-3-(cyclopropylamino)-1-[[(3S,5R)-5-methyl-2-oxo-pyrrolidin-3-yl]methyl]-2,3-dioxo-propyl]carbamoyl]phenyl]-5-(trifluoromethyl)pyrazine-2-carboxamide] | 19.1
3 | CNC(=O)C(=O)[C@H](C[C@@H]1C[C@@H](C)NC1=O)NC(=O)c1cc(Cl)ccc1NC(=O)C(C)c1ccnc(C(F)(F)F)c1 (stereo partly drawn) [Example 227, 5-chloro-N-[(1S)-3-(methylamino)-1-[[(3S,5R)-5-methyl-2-oxo-pyrrolidin-3-yl]methyl]-2,3-dioxo-propyl]-2-[2-[2-(trifluoromethyl)-4-pyridyl]propanoylamino] benzamide] | 7.4
4 | CNC(=O)C(=O)[C@H](C[C@@H]1C[C@@H](C)NC1=O)NC(=O)c1cc(Cl)ccc1NC(=O)C(C)c1ccnc(C(F)(F)F)c1 (stereo partly drawn) [Example 228, 5-chloro-N-[(1S)-3-(methylamino)-1-[[(3S,5R)-5-methyl-2-oxo-pyrrolidin-3-yl]methyl]-2,3-dioxo-propyl]-2-[2-[2-(trifluoromethyl)-4-pyridyl]propanoylamino] benzamide] | 6.1
5 | CNC(=O)C(=O)[C@H](C[C@@H]1C[C@@H](C)NC1=O)NC(=O)c1cc(Cl)cc(Cl)c1NC(=O)c1ccnc(C(F)(F)F)c1 [Example 231, N-[2,4-dichloro-6-[[(1S)-3-(methylamino)-1-[[(3S,5R)-5-methyl-2-oxo-pyrrolidin-3-yl]methyl]-2,3-dioxo-propyl]carbamoyl]phenyl]-2-(trifluoromethyl)pyridine-4-carboxamide] | 5.6
6 | C[C@@H]1C[C@@H](C[C@H](NC(=O)c2cc(C(F)F)ccc2NC(=O)c2ccnc(C(F)(F)F)c2)C(=O)C(=O)NC2CC2)C(=O)N1 [Example 232, N-[2-[[(1S)-3-(cyclopropylamino)-1-[[(3S,5R)-5-methyl-2-oxo-pyrrolidin-3-yl]methyl]-2,3-dioxo-propyl]carbamoyl]-4-(difluoromethyl)phenyl]-2-(trifluoromethyl)pyridine-4-carboxamide] | 10.4
7 | C[C@@H]1C[C@@H](C[C@H](NC(=O)c2c(NC(=O)c3ccnc(C(F)(F)F)c3)cc(F)c(F)c2F)C(=O)C(=O)NC2CC2)C(=O)N1 [Example 233, N-[2-[[(1S)-3-(cyclopropylamino)-1-[[(3S,5R)-5-methyl-2-oxo-pyrrolidin-3-yl]methyl]-2,3-dioxo-propyl]carbamoyl]-3,4,5-trifluoro-phenyl]-2-(trifluoromethyl)pyridine-4-carboxamide] | 44
8 | O=C(NC1CC1)C(=O)[C@H](C[C@@H]1CCCNC1=O)NC(=O)c1cc(Cl)ccc1NC(=O)c1ccnc(C(F)(F)F)c1 [Example 234, N-[4-chloro-2-[[(1S)-3-(cyclopropylamino)-2,3-dioxo-1-[[(3S)-2-oxo-3-piperidyl]methyl]propyl]carbamoyl]phenyl]-2-(trifluoromethyl)pyridine-4-carboxamide] | 17.1
9 | O=C(CCC(F)(F)F)Nc1ccc(Cl)cc1C(=O)N[C@@H](C[C@@H]1CCCNC1=O)C(=O)C(=O)NC1CC1 [Example 235, 5-chloro-N-[(1S)-3-(cyclopropylamino)-2,3-dioxo-1-[[(3S)-2-oxo-3-piperidyl]methyl]propyl]-2-(4,4,4-trifluorobutanoylamino) benzamide] | 15.1
